This assay deals with T1, bovine testis-derived hyaluronidase (Type IV of Sigma) (Bos taurus, UniProt Q2YDK3).
T1 construct: purchased Sigma Type IV; host or cells: bovine testis
T1 sequence (Q2YDK3 36-553): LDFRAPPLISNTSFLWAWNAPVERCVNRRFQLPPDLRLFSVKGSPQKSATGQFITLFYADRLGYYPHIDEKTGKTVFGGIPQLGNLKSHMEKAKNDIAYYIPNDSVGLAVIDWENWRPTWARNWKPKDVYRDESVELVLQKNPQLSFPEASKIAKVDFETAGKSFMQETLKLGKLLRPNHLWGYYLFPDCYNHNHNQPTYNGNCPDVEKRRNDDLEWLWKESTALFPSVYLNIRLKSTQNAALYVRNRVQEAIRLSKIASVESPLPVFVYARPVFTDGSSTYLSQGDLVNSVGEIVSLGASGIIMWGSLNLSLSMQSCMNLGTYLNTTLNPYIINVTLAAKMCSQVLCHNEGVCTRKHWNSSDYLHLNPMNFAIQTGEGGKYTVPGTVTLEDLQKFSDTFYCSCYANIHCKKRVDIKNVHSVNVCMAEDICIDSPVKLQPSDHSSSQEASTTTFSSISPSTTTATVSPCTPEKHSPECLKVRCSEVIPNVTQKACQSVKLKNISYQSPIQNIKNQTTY
In words: Assay for the hyaluronidase inhibiting activity (inhibition of compound 48/80 activation of inactivated enzyme, colorimetric A585). In kind it is biochemical. To be noted: 0.1M acetate buffer pH 4.0, 37° C., enzyme activated with compound 48/80, sodium hyaluronate substrate.

Procedure: Stated more specifically, a suitable amount of a test sample was dissolved in 100 μl of a 0.1M acetate buffer solution (pH 4.0) and the solution was pipetted into a test tube. Following the addition of 0.10 mg (100 NF units) of the enzyme dissolved in 50 μl of the same buffer solution, the mixture was incubated at 37° C. for 20 min. […] Thereafter, 200 μg of sodium hyaluronate derived from a microorganism dissolved in 250 μl of the same buffer solution was added and the mixture was incubated at 37° C. for 40 min. Finally, 100 μl of 0.4N NaOH was added and, after cooling with ice, 100 μl of a borate buffer solution (pH 9.10) was added and the mixture was boiled for 3 min; after cooling with ice, 3 ml of a p-dimethylaminobenzaldehyde solution was added and the mixture was incubated for 20 min at 37° C. before [MUT] measurement was conducted. In place of the sample solution, 0.1M acetate buffer solution (pH 4.0) was used to prepare a control. […] The hyaluronidase inhibiting activity of the sample solution was expressed by percent inhibition as determined from the following equation: [formula] where A: [MUT] of the control solution B: [MUT] of the blank for the control solution C: [MUT] of the sample solution D: [MUT] of the blank for the sample solution.

Regarding `O=C(O)c1cc(=O)c2c(OCC(O)COc3cccc4oc(C(=O)O)cc(=O)c34)cccc2o1` [Sodium cromoglycate], the IC50 is 299 µM.

(Values after patent US5843911A, “Hyaluronidase inhibitor containing god-type ellagitannin as active ingredient” (Suntory Limited, priority 1995, dated 1998).)
